Data as given in paper PMC9301920, “Physiologically Based Toxicokinetic Modeling of Bisphenols in Zebrafish (Danio rerio) Accounting for Variations in Metabolic Rates, Brain Distribution, and Liver Accumulation” (Environmental Science & Technology, 2022).
Where two headings read alike, the source gives them in different places.

Experiments:
[1] = In vitro biotransformation rate, rainbow trout liver S9 (OECD TG 319); format: in vitro ADME
Protocol: In brief, rainbow trout liver S9 homogenate was preincubated in buffer and cofactors, followed by 120 min of incubation with bisphenol. From each duplicate, 50 μL of subsamples was taken at timepoints 0, 2, 5, 15, 30, 60, 90, and 120 min and mixed with 200 μL of ice-cold methanol. The protocol of the procedure is described further in Section 2.
1042. Biotransformation rate estimation methodology
106Trinova Biochem; Lot: 180216) was pre-incubated at 11°C in K 2HPO4/KH2PO4 buffer
107(pH=7.8; 1 mL final volume) containing alamethicin from Trichoderma viride (25 μg/mL), and
108cofactors NADPH (2 mM), UDPGA (2 mM), GSH (5 mM), and PAPS (0.1 mM). After 10 min
109of preincubation, biotransformation was started by adding 5 µL of bisphenol test compound
110dissolved in methanol (1 µM final concentration). […]

[2] = In vivo zebrafish kinetics of BPZ (water exposure, organ concentrations by LC-MS/MS); set-up: species or system zebrafish (Danio rerio); conditions: female, zebrafish; for concentration at 12 h / concentration at 483 h / concentration at 486 h / concentration at 492 h / concentration at 504 h / concentration at 576 h / concentration at 6 h / concentration at 24 h / concentration at 48 h / concentration at 72 h / concentration at 336 h / concentration at 411 h / concentration at 480 h: female zebrafish; for concentration at 483 h: 483 h (depuration phase); for concentration at 486 h: 486 h (depuration phase); for concentration at 492 h: 492 h (depuration phase); for concentration at 504 h: 504 h (depuration phase); for concentration at 576 h: 576 h (depuration phase); for concentration at 480 h: 480 h (one outlier fish removed); for Cmax / half-life: 17 μg/L in water, observed
Protocol: (§1) At sampling, adult fish were euthanized by immersion in a sodium bicarbonate-buffered tricaine methanesulfonate solution (MS222: 500 mg/L) and decapitated thereafter. […] Additionally, three whole fish were sampled at timepoints of 6, 12, and 24 h of the exposure phase. Water from the fish tank was sampled at 0, 12, 24, 48, 72, 168, 336, 411, and 480 h after exposure start as well as at 0, 12, 24, and 96 h after the start of depuration. Control fish and tank water were sampled before the start of exposure. All samples were immediately stored at −20 °C until further analysis. […]
(§2) 1223. In Vivo Zebrafish Kinetics of BPZ
(§3) 123Adult zebrafish were purchased from a local supplier in Uppsala, Sweden, and acclimatized for
(§4) 1246 weeks before the start of the study. The zebrafish were kept in 26 °C charcoal filtered tap
(§5) 173NH 4OH and 4 ml acetonitrile/tetrahydofuran (1:1) mixture. The 4 ml 2% formic acid in
(§6) 174methanol eluates were evaporated until dry. Remaining residues were then reconstituted in 50
(§7) 175µl water and methanol 50/50 v/v mixture. Extracts were stored at 4°C until measurement.
(§8) 176The extracts were measured on a LC (ExionLC, Sciex) coupled with a Turbo V Ion source (ESI)
(§9) 178Sciex). Separation of compound was done on a phenyl-hexyl column (Kinetex, 100 x 2.1 mm,
(§10) 1791.7 µm, Phenomenex) set at 45°C using a gradient of 0.2 mM NH 4F and 0.2 mM NH4F in
(§11) 180acetonitrile. The applied MRM transitions and MS/MS settings are described in Tables S5-S8.
(§12) LC column Kinetex Phenyl-hexyl column, 1.7 µm, 2,1 mm X 100
(§13) Delay column Isolator column, 2.1 mm X 100 mm (Waters)
(§14) Gradient 0.2 mM NH4F 0.2 mM NH4F in
(§15) 194limit of detection (LOD). The LOD is defined as three times the standard deviation of the blank
(§16) 195plus the average blank value. The limit of quantification (LOQ) is defined as 3.3 * LOD value
(§17) Blank pg/extract Recovery % Repeatability %
(§18) Detection and report limits (calculated on based of average sample intake)

female zebrafish = assay: as above; set-up: species or system zebrafish (Danio rerio); conditions: 17 μg/L in water, observed
Protocol: as §1, §2, §3, §4, §5, §6, §7, §8, §9, §10, §11, §12, §13, §14, §15, §16, §17, §18

Estrogen receptor (ER) = molecular target: Estrogen receptor (ER); set-up: method as in Kitamura et al. 2005; conditions: ERE-luciferase reporter assay, MCF-7 cells; ref Kitamura et al. 2005; cited from earlier work
[3] = brain, other: exposure via tank water, 10 μg/L (nominal water concentration), read-out: Mean concentration, brain
[4] = brain, other: water exposure, 10 µg/L, read-out: Mean concentration, brain
[5] = carcass, other: exposure via tank water, 10 μg/L (nominal water concentration), read-out: Mean concentration, carcass
[6] = carcass, other: water exposure, 10 µg/L, read-out: Mean concentration, carcass
[7] = liver, other: exposure via tank water, 10 μg/L (nominal water concentration), read-out: Mean concentration, liver
[8] = liver, other: water exposure, 10 µg/L, read-out: Mean concentration, liver
[9] = ovary, other: exposure via tank water, 10 μg/L (nominal water concentration), read-out: Mean concentration, ovary
[10] = ovary, other: water exposure, 10 µg/L, read-out: Mean concentration, ovary
[11] = whole body (calculated), other: water exposure, 10 µg/L, read-out: Mean concentration, whole body (calculated)
[12] = whole body, other: exposure via tank water, 10 μg/L (nominal water concentration), read-out: Mean concentration, whole body (calculated)
[13] = whole body, other: water exposure, 10 µg/L, read-out: Mean concentration, whole body (measured)
[14] = 17 μg/L (water concentration), brain
[15] = 17 μg/L (water concentration), carcass

## Oc1ccc(C2(c3ccc(O)cc3)CCCCC2)cc1 [BPZ, bisphenol Z]
[1]; both series combined
  CL: 0.30 mL/(h x mg)
[1]; from measured S9 clearance, transformed as suggested by Nichols et al.
  CLin vivo,int (in vivo intrinsic clearance): 17.4 L/d/Kg fish
[1]; in vitro incubation with rainbow trout liver S9, assuming 163 mg S9 protein/g liver
  CL (clearance rate): 1.16 × 10^3 mL/d/g liver
[1]; series 1 (s1)
  CL: 0.33 mL/(h x mg)
  k (first-order disappearance rate constant): 0.32 h⁻¹
[1]; series 2 (s2)
  CL: 0.26 mL/(h x mg)
  k (first-order disappearance rate constant): 0.26 h⁻¹
[2]; [3]
  concentration at 12 h: 82.1 ng/g
  concentration at 483 h: 14.4 ng/g
  concentration at 486 h: 7.9 ng/g
  concentration at 492 h: < 2.5 ng/g
  concentration at 504 h: < 3 ng/g
  concentration at 576 h: < 2.5 ng/g
[2]; [4]
  concentration at 6 h: 72 ng/g
  concentration at 24 h: 116 ng/g
  concentration at 48 h: 64.4 ng/g
  concentration at 72 h: 170 ng/g
  concentration at 336 h: 156 ng/g
  concentration at 411 h: 150 ng/g
  concentration at 480 h: 61.4 ng/g
[2]; [5]
  concentration at 480 h: 249 ng/g
  concentration at 483 h: 133 ng/g
  concentration at 486 h: 24.3 ng/g
  concentration at 492 h: 18.9 ng/g
  concentration at 504 h: 8.3 ng/g
  concentration at 576 h: 1.6 ng/g
[2]; [6]
  concentration at 6 h: 160 ng/g
  concentration at 12 h: 261 ng/g
  concentration at 24 h: 671 ng/g
  concentration at 48 h: 612 ng/g
  concentration at 72 h: 1120 ng/g
  concentration at 336 h: 348 ng/g
  concentration at 411 h: 557 ng/g
[2]; [7]
  concentration at 12 h: 57.5 ng/g
  concentration at 483 h: 252 ng/g
  concentration at 486 h: 71.3 ng/g
  concentration at 492 h: 11 ng/g
  concentration at 504 h: 12.4 ng/g
  concentration at 576 h: 4.4 ng/g
[2]; [8]
  concentration at 6 h: 182 ng/g
  concentration at 24 h: 364 ng/g
  concentration at 48 h: 225 ng/g
  concentration at 72 h: 536 ng/g
  concentration at 336 h: 146 ng/g
  concentration at 411 h: 232 ng/g
  concentration at 480 h: 1010 ng/g
[2]; [9]
  concentration at 12 h: 113 ng/g
  concentration at 480 h: 69.3 ng/g
  concentration at 483 h: 108 ng/g
  concentration at 486 h: 108 ng/g
  concentration at 492 h: 84.5 ng/g
  concentration at 504 h: 48.3 ng/g
  concentration at 576 h: 1 ng/g
[2]; [10]
  concentration at 6 h: 85.3 ng/g
  concentration at 24 h: 146 ng/g
  concentration at 48 h: 146 ng/g
  concentration at 72 h: 259 ng/g
  concentration at 336 h: 269 ng/g
  concentration at 411 h: 214 ng/g
[2]; [11]
  concentration at 12 h: 203 ng/g
  concentration at 24 h: 530 ng/g
  concentration at 48 h: 500 ng/g
  concentration at 72 h: 900 ng/g
  concentration at 336 h: 296 ng/g
  concentration at 411 h: 472 ng/g
[2]; [12]
  concentration at 6 h: 130 ng/g
  concentration at 480 h: 449 ng/g
  concentration at 483 h: 128 ng/g
  concentration at 486 h: 35.1 ng/g
  concentration at 492 h: 28.2 ng/g
  concentration at 504 h: 14.5 ng/g
  concentration at 576 h: 1.5 ng/g
[2]; whole body, other: exposure via tank water, 10 μg/L (nominal water concentration), read-out: Mean concentration, whole body (measured)
  concentration at 6 h: 215 ng/g
[2]; [13]
  concentration at 12 h: 336 ng/g
  concentration at 24 h: 435 ng/g
[2]; [14]
  Cmax: 170 ng/g
  half-life: 135 h
[2]; [15]
  Cmax: 1120 ng/g
  half-life: 119 h
[2]; liver
  Cmax: 1010 ng/g
  half-life: 210 h
[2]; ovaries
  Cmax: 270 ng/g
  half-life: 247 h
[2]; whole body
  Cmax: 900 ng/g
  half-life: 134 h
Female zebrafish; brain
  AUC: 2.85 µg/g/day
  BCF: 10.0
Female zebrafish; carcass
  AUC: 12.5 µg/g/day
  BCF: 65.9
Female zebrafish; liver
  AUC: 7.07 µg/g/day
  BCF: 59.2
Female zebrafish; ovaries
  AUC: 4.70 µg/g/day
  BCF: 15.8
Female zebrafish; whole body
  AUC: 10.6 µg/g/day
  BCF: 52.9
Estrogen receptor (ER)
  EC50: 210 nM
